Laboratory results published in publication PMC5011342, “A high throughput drug screening assay to identify compounds that promote oligodendrocyte differentiation using acutely dissociated and purified oligodendrocyte precursor cells” (BMC Research Notes, 2016).
Entries after “also recorded” stand apart in the source; their conditions may differ. Read-outs that look alike come from different tables or passages of the source.

What was measured:
[1] = test system: expanded OPCs; test: cells; details: for 0.1 µM (% DMSO) / 1 µM (% DMSO) / 10 µM (% DMSO): alamarBlue viability of expanded OPCs, relative to DMSO control; for 0.1 µM (% DMSO): compound at 0.1 µM; for 1 µM (% DMSO): compound at 1 µM; for 10 µM (% DMSO): compound at 10 µM; for viability at 0.1 µM / viability at 1 µM / viability at 10 µM: Rattus norvegicus, 72 h
Experimental: Having established a consistent assay for measuring OL differentiation in vitro, the next step was to utilize this assay to assess the ability of a wide array of compounds to promote OL differentiation. Prior to library screening, we first established the maximum non-toxic dose of each compound in the library. […] Therefore, we added each compound in the NIH clinical collection (NCC) library to OPCs at 10, 1, and 0.1 µM concentrations. Three days later, we assessed viability of the treated cells by measuring AlamarBlue fluorescence, a measure of cell viability (see “Methods” section). […] Appropriately, we established three sets of screening concentrations for library compounds: non-toxic compounds were tested at 10 and 2 µM, slightly toxic compounds (only toxic at 10 µM) were tested at 2 and 0.4 µM, and very toxic compounds were tested at 0.4 and 0.08 µM.
OPCs were expanded in vitro by seeding into PDL-coated tissue culture flasks at 1000–2000 cells/cm^2 in differentiation media supplemented with 10 ng/ml PDGF-AA. Proliferating OPCs were fed every 2–3 days and supplemented with 2–3× concentration of PDGF as needed to prevent OPC differentiation. After 6–7 days of proliferation, OPCs were harvested by trypsinization, plated into PDL-coated 96-well Falcon plates and centrifuged at 200×g to facilitate cell attachment, survival, and even distribution of cells. Expanded OPCs were seeded in differentiation media at 10,000 cells/well and incubated for 2 h at 37 °C, 10 % CO2 prior to addition of compounds. The NCC library was diluted and added to cells at 10, 1, and 0.1 µM; each concentration was tested in quadruplicate. As a positive control for the induction of toxicity, 5 ng/ml tunicamycin was added to 8 wells in each plate. Three days later, a 1:10 dilution of alamarBlue® (AB) was added to each well and cells were incubated 4 h at 37 °C, 10 % CO2. AB fluorescence was measured using a PerkinElmer Victor II fluorescence microplate reader (PerkinElmer, Waltham, MA) with 560 nm excitation/590 nm emission filters. For library screening, the highest concentration of each compound was adjusted to a minimally toxic concentration based on this toxicity data. Compounds were additionally tested at a second concentration that was 1/5th of the top concentration. The final concentration of DMSO in each well was 0.1 %.

[2] = test system: acutely dissociated and purified rat OPCs; test: Acute OL differentiation assay (MBP expression/cell, immunofluorescent image quantification); assay type: cell-based
Experimental: In order to identify compounds with the potential to promote OL differentiation in vivo and thereby enhance remyelination, we first wanted to establish an in vitro assay system that would closely mimic conditions in vivo. To do this, we started by using OPCs acutely isolated from postnatal day 6–7 (P6–7) rat brains by O4 immunopanning. […] OPCs were plated directly onto a biological substrate (PDL/laminin) in 96-well view plates at moderate density to allow for sufficient room to expand processes during differentiation. We plated cells in serum-free medium lacking OPC mitogens (no PDGF or FGF) to allow a basal level of OL differentiation to commence, and as a positive control added thyroid hormone (T3, 40 ng/ml) to accelerate differentiation (Fig. 1, flow scheme).
Fig. 1 Flow scheme of the acute OL differentiation assay. a Purified oligodendrocyte precursor cells (OPCs) were cultured from P7 rat cortex and plated into PDL/laminin pre-coated 96-well plates. b One hour later test compounds were added. c OPC cultures with compound were maintained in culture for an additional 4 days. d On the 5th day with compound, cells were fixed and immunostained with anti-MBP antibodies and DAPI. e Images were acquired with automated fluorescence microscopy and scored phenotypically for OL differentiation (see “Methods” section)
To quantify the extent of OL differentiation occurring in treatment conditions, we measured the overall amount of MBP expression/cell (see “Methods” section). Figure 2a depicts the mask created over MBP staining under which the MBP expression was quantified. […]
All animal work was carried out in strict accordance with the recommendations in the Guide for the Care and Use of Laboratory Animals of the National Institutes of Health. The protocol was approved by the Institutional Use and Care and Use Committee at the Molecular Medicine Research Institute (Sunnyvale, CA). Animals used for OPC isolation in these studies were euthanized by decapitation. OPCs from brains of P6-P7 Sprague–Dawley rat pups (Charles River, Wilmington, MA, USA) were enriched by immunopanning as previously described (Dugas et al. 2006). Briefly, single cell suspensions were obtained from papain-digested neonatal brains and depleted of mature glial cells by successive panning with RAN-2- and GalC-coated plates, followed by enrichment for OPCs using O4-coated plates. OPCs were plated in differentiation media (DMEM, 100 U/ml Penicillin/100 µg/ml streptomycin, 2 mM L-glutamine, 1 mM Na pyruvate, 5 µg/ml insulin, 5 µg/ml N-acetyl-L-cysteine, 1× trace elements B,10 ng/ml d-Biotin, 100 µg/ml BSA, 100 µg/ml apo-transferrin, 16 µg/ml putrescine, 60 ng/ml progesterone, 40 ng/ml sodium selenite 5 ng/ml forskolin, 10 ng/ml CNTF, 1 ng/ml NT-3).
Acutely enriched OPCs were plated in differentiation media at 5000 cells/well into PDL/laminin coated 96-well view plates and centrifuged at 200×g to facilitate cell attachment, survival, and even distribution of OPCs. OPCs were pre-incubated for 1–2 h at 37 °C in 10 % CO2, followed by the addition of test compounds in quadruplicate. Controls were added in eight replicate wells, negative control = 0.1 % DMSO; positive control = 40 ng/ml T3. The day of OPC plating was considered DIV0. On DIV4, cells were fixed, immunostained for myelin basic protein (MBP) expression, imaged and quantified as described below.

[3] = read-out: 0.1 µM (% DMSO), alamarBlue viability, NCC library compound at 0.1 µM, sheet "All Tox data"
[4] = read-out: 1 µM (% DMSO), alamarBlue viability, NCC library compound at 1 µM, sheet "All Tox data"
[5] = read-out: 10 µM (% DMSO), alamarBlue viability, NCC library compound at 10 µM, sheet "All Tox data"
[6] = Rattus norvegicus, test compound at 2 uM; NCC library screen, sheet "All OLga data"; relative to quetiapine; read-out: 2 uM (% Quet)
[7] = read-out: 0.1 µM (% DMSO), alamarBlue viability of expanded OPCs, compound at 0.1 µM, sheet All Tox data
[8] = read-out: 1 µM (% DMSO), alamarBlue viability of expanded OPCs, compound at 1 µM, sheet All Tox data
[9] = read-out: 10 µM (% DMSO), alamarBlue viability of expanded OPCs, compound at 10 µM, sheet All Tox data
[10] = Rattus norvegicus, 2 uM test compound; relative to quetiapine; sheet "All OLga data"; read-out: OL differentiation, 2 uM (% Quet)
[11] = Rattus norvegicus, 10 uM test compound; relative to quetiapine; sheet "All OLga data"; read-out: OL differentiation, 10 uM (% Quet)
[12] = Rattus norvegicus; average EC50 for induction of OL differentiation from independent biological replicates, eight concentrations
[13] = ● = confirmed hit in this paper's assay

CC(=O)OCC(=O)[C@@]1(O)CC[C@H]2[C@@H]3CCC4=CC(=O)C=C[C@]4(C)[C@H]3[C@@H](O)C[C@@]21C [Prednisolone acetate]
0.1 µM (% DMSO) [1]: 112.3 % DMSO | 1 µM (% DMSO) [1]: 112.6 % DMSO | 10 µM (% DMSO) [1]: 109.9 % DMSO | activation at 2 µM ([2]; Rattus norvegicus, test compound at 2 uM; MBP expression relative to quetiapine; NCC library screen, sheet "All OLga data"; read-out: 2 uM (% Quet)): -3.3% | activation at 10 µM ([2]; Rattus norvegicus, test compound at 10 uM; MBP expression relative to quetiapine; NCC library screen, sheet "All OLga data"; read-out: 10 uM (% Quet)): -37.1%

CCCCC[C@H](O)/C=C/[C@H]1[C@H](O)CC(=O)[C@@H]1CCCCCCC(=O)O [Alprostadil]
viability at 0.1 µM [1, 3]: 84.4% | viability at 1 µM [1, 4]: 85.6% | viability at 10 µM [1, 5]: 81.6% | activation at 2 µM [2, 6]: -7.2% | activation at 10 µM ([2]; Rattus norvegicus, test compound at 10 uM; NCC library screen, sheet "All OLga data"; relative to quetiapine; read-out: 10 uM (% Quet)): -67.6%

COc1cc(NC(C)CCCN)c2ncccc2c1 (centres unmarked) [Primaquine]
0.1 µM (% DMSO) [1]: 90.1 % DMSO | 1 µM (% DMSO) [1]: 66.2 % DMSO | 10 µM (% DMSO) [1]: 32.4 % DMSO | activation at 0.4 µM ([2]; Rattus norvegicus; read-out: 0.4 uM (% Quet)): -10% | activation at 2 µM ([2]; Rattus norvegicus; read-out: 2 uM (% Quet)): -37.5%

C[C@@H]1O[C@@H](OC[C@H]2O[C@@H](Oc3c(-c4ccc(O)c(O)c4)oc4cc(O)cc(O)c4c3=O)[C@H](O)[C@@H](O)[C@@H]2O)[C@H](O)[C@H](O)[C@H]1O [Rutin]
viability at 0.1 µM [1, 7]: 106% | viability at 1 µM [1, 8]: 108% | viability at 10 µM [1, 9]: 106% | activation at 2 µM [2, 10]: 22.9% | activation at 10 µM [2, 11]: 21.3%

CC[C@H]1OC(=O)[C@H](C)[C@@H](O[C@H]2C[C@@](C)(OC)[C@@H](O)[C@H](C)O2)[C@H](C)[C@@H](O[C@@H]2O[C@H](C)C[C@H](N(C)C)[C@H]2O)[C@](C)(O)C[C@@H](C)CN(C)[C@H](C)[C@@H](O)[C@]1(C)O [Azithromycin]
0.1 µM (% DMSO) [1]: 76.1 % DMSO | 1 µM (% DMSO) [1]: 40.6 % DMSO | 10 µM (% DMSO) [1]: 25.1 % DMSO | activation at 0.08 µM ([2]; Rattus norvegicus, test compound at 0.08 uM; MBP expression relative to quetiapine; NCC library screen, sheet "All OLga data"; read-out: 0.08 uM (% Quet)): 8.2% | activation at 0.4 µM ([2]; Rattus norvegicus, test compound at 0.4 uM; MBP expression relative to quetiapine; NCC library screen, sheet "All OLga data"; read-out: 0.4 uM (% Quet)): -7.2%

Cc1nnc2n1-c1ccc(Cl)cc1C(c1ccccc1)=NC2 [Alprazolam]
viability at 0.1 µM [1, 7]: 102% | viability at 1 µM [1, 8]: 115% | viability at 10 µM [1, 9]: 139% | activation at 2 µM [2, 10]: -12.2% | activation at 10 µM [2, 11]: -116%

CCCCN1CCCC1CNC(=O)c1cc(C#N)c2ccccc2c1OC (centres unmarked) [Nafadotride]
viability at 0.1 µM [1, 3]: 118% | viability at 1 µM [1, 4]: 131% | viability at 10 µM [1, 5]: 49.6% | activation at 0.4 µM ([2]; Rattus norvegicus, test compound at 0.4 uM; NCC library screen, sheet "All OLga data"; relative to quetiapine; read-out: 0.4 uM (% Quet)): 7.6% | activation at 2 µM [2, 6]: 26.6%

COC(=O)C1=C(C)NC(C)=C(C(=O)OC)C1c1ccccc1[N+](=O)[O-] [Nifedipine]
activation at 0.4 µM ([2]; Rattus norvegicus, 0.4 uM test compound; relative to quetiapine; sheet "All OLga data"; read-out: OL differentiation, 0.4 uM (% Quet)): 19.7% | activation at 2 µM [2, 10]: -8.9%

COc1ccc(CC(C)NCC(O)c2ccc(O)c(NC=O)c2)cc1 (centres unmarked) [Formoterol]
activation at 2 µM ([2]; Rattus norvegicus, read-out: 2 uM (% Quet)): 4.6% | activation at 10 µM ([2]; Rattus norvegicus, read-out: 10 uM (% Quet)): 12.1%

N[C@@H](Cc1cc(I)c(Oc2ccc(O)c(I)c2)c(I)c1)C(=O)O [T3, triiodothyronine, reference compound]
promotion of OL differentiation (in words) ([2]; MBP expression versus 0.1 % DMSO negative control): able to promote OL differentiation at one or both concentrations tested; also recorded: consistently and significantly promote OL differentiation

CN(C)CCC[C@@]1(c2ccc(F)cc2)OCc2cc(C#N)ccc21 [Escitalopram, reference compound]
EC50 [2, 12]: 1.3 µM | hit in OL differentiation assay, MRF-TMC [2, 13]: ●

COc1c(N2C[C@@H]3CCCN[C@@H]3C2)c(F)cc2c(=O)c(C(=O)O)cn(C3CC3)c12 [Moxifloxacin]
activation at 2 µM [2, 10]: 20.2% | activation at 10 µM [2, 11]: 16.3%

Cc1c(C(=O)NN2CCCCC2)nn(-c2ccc(Cl)cc2Cl)c1-c1ccc(I)cc1 [AM 251]
0.4 uM (% Quet) [2]: -5.0 % Quet | 2 uM (% Quet) [2]: -199.0 % Quet

Nc1nc2ccc(OC(F)(F)F)cc2s1 [Riluzole]
activation at 2 µM [2, 10]: -11.1% | activation at 10 µM [2, 11]: 32.6%

COc1cc2c(cc1OC)C(=O)C(CC1CCN(Cc3ccccc3)CC1)C2 (centres unmarked) [Donepezil, reference compound]
activation at 2 µM [2, 10]: 94.8% | activation at 10 µM [2, 11]: 75.6% | hit in OL differentiation assay, MRF-TMC [2, 13]: ●

CC1CCN(CCCC(=O)c2ccc(F)cc2)CC1 [Metylperon, reference compound]
EC50 [2, 12]: 7.3 µM | hit in OL differentiation assay, MRF-TMC [2, 13]: ●
